Columns and labels:
Type in all cases: in vivo, C57BL/6 male mice
[1] = system: animals with LPS-induced cognitive impairment; assay: Animals with LPS-induced cognitive impairment: colitis improvement (colon); conditions: LPS-treated mice, 1×10^9 CFU/mouse or sulfasalazine 50 mg/kg once a day for 5 days
Method: (§1) To 100 mg of colon tissue, 200 μl of 10 mM potassium phosphate buffer (pH 7.0) containing 0.5% hexadecyl trimethyl ammonium bromide was added and homogenized. Then, the supernatant was obtained by centrifugation for 10 minutes at 4° C. and 10,000 g. A volume of 50 μl of the supernatant was added to 0.95 mk of reaction solution (containing 1.6 mM tetramethyl benzidine and 0.1 mM H2O2), reacted at 37° C., and absorbance was monitored over time at 650 nm.
(§2) Hippocampus, colon, and spleen tissues were homogenized by adding 1 ml of RIPA buffer (Gibco) containing protease inhibitor cocktail and centrifuged at 4° C., 13000 rpm for 15 min to obtain supernatant. Indicators of this supernatant were measured using an ELISA kit (Ebioscience).
C57BL/6 male mice (5 weeks old, 19-21 g) were divided (6 mice in each group) and acclimatized to the laboratory for 1 week. To induce intestinal and brain diseases, mice were intraperitoneally administered Escherichia coli-derived LPS (10 μg/kg) once daily for 5 days. […] Experimental animals in the normal group were orally administered with a physiological saline solution, which was used to suspend lactic acid bacteria. The day following the conclusion of sample administration, the experimental animals were sacrificed, and samples from the brain hippocampus, colon, and spleen were collected. In the Hippocampus, inflammatory indicators, such as IFN-γ, TNF-α, and IL-10, were measured using ELISA. In the colon, intestinal length and inflammatory indicators, such as IFN-γ, TNF-α, and IL-10, were measured. In the spleen, Th1 cells and Treg cells were measured by FACS (Fluorescence-Activated Cell Sorting).

healthy animal [2] = assay: Healthy animal: spleen parameters; conditions: healthy mice, 1×10^9 CFU/mouse orally once a day for 5 days; for Foxp3 (fold change) / Tbet (fold change) / Tbet/Foxp3: spleen qPCR; for IFN-γ/IL-10 / IL-10 / Interferon (IFN)-γ / NK cell cytoxicity (%) / Phagocytosis (%) / TNF-a/IL-10 / TNF-α: spleen
Method: as §2
(§3) mRNA was isolated from spleen tissue using the RNA Isolation Kit: RNeasy Mini Kit (QIAGEN), converted to cDNA, and qPCR was performed to measure the expression rates of Tbet, Foxp3, and glyceraldehyde 3-phosphate dehydrogenase (GAPDH). The reaction product was first treated at 95° C. for 30 seconds, followed by 38 cycles of 5 seconds at 95° C. and 30 seconds at 72° C. for analysis.
(§4) C57BL/6 male mice (5 weeks old, 19-21 g) were divided (6 mice in each group) and acclimatized to the laboratory for 1 week. The mice were orally administered once a day for 5 days with lactic acid bacteria as a test sample suspended in physiological saline solution at a concentration of 1×10^9 CFU per mouse (NK210 alone (LR): 1×10^9 CFU/mouse, NK219 alone (BL): 1×10^9 CFU/mouse, combined (210+219): 210, 8×10^8 CFU/mouse and 219, 2×10^8 CFU/mouse). […] The day following the conclusion of sample administration, the experimental animals were sacrificed, and samples from the brain hippocampus, colon, and spleen were collected. In the Hippocampus, inflammatory indicators, such as IFN-γ, TNF-α, and IL-10, were measured using ELISA. In the colon, intestinal length and inflammatory indicators, such as IFN-γ, TNF-α, and IL-10, were measured. In the spleen, Th1 cells and Treg cells were measured by FACS (Fluorescence-Activated Cell Sorting).

[3] = system: animals with antibiotic-induced gut microbiota imbalance; assay: Animals with antibiotic (ampicillin)-induced gut microbiota imbalance: improvement effect in spleen; conditions: ampicillin (AP)-treated mice, 1×10^9 CFU/mouse orally once a day for 5 days; for Foxp3 (fold change) / Tbet (fold change) / Tbet/Foxp3: spleen qPCR; for IFN-γ/IL-10 / IL-10 / Interferon (IFN)-γ / NK cell cytoxicity (%) / Phagocytosis (%) / TNF-a/IL-10 / TNF-α: spleen
Method: as §2, §3
C57BL/6 male mice (5 weeks old, 19-21 g) were divided (6 mice in each group) and acclimatized to the laboratory for 1 week. To induce intestinal and brain diseases, the mice were orally administered with ampicillin (AP, 100 mg/kg, dissolved in physiological saline) for 3 days. Meanwhile, the normal group was orally administered with 0.1 ml of physiological saline. […] The day following the conclusion of sample administration, the experimental animals were sacrificed, and samples from the brain hippocampus, colon, and spleen were collected. In the Hippocampus, inflammatory indicators, such as IFN-γ, TNF-α, and IL-10, were measured using ELISA. In the colon, intestinal length and inflammatory indicators, such as IFN-γ, TNF-α, and IL-10, were measured. In the spleen, Th1 cells and Treg cells were measured by FACS (Fluorescence-Activated Cell Sorting), and in feces, endotoxin (LPS) and gut microbial communities were measured.

healthy animal [4] = assay: Healthy animal: colon parameters; conditions: healthy mice, 1×10^9 CFU/mouse orally once a day for 5 days
Method: as §1, §2, §4

[5] = system: immunosuppressed animals induced by anticancer drug (cyclophosphamide); assay: Immunosuppressed animals induced by cyclophosphamide: improvement effect in spleen; conditions: cyclophosphamide (CP)-treated mice, 1×10^9 CFU/mouse orally once a day for 5 days; for Foxp3 (fold change) / Tbet (fold change) / Tbet/Foxp3: spleen qPCR; for IFN-γ/IL-10 / IL-10 / Interferon (IFN)-γ / NK cell cytoxicity (%) / Phagocytosis (%) / TNF-a/IL-10 / TNF-α: spleen
Method: as §2, §3
C57BL/6 male mice (5 weeks old, 19-21 g) were divided (6 mice in each group) and acclimatized to the laboratory for 1 week. To induce intestinal and brain diseases, the mice were administered with cyclophosphamide (CP, 150 mg/kg, dissolved in physiological saline) for 1 day, rested for 1 day, and then administered intraperitoneally the next day. Meanwhile, the normal group was administered intraperitoneally with 0.1 ml of physiological saline. […] The day following the conclusion of sample administration, the experimental animals were sacrificed, and samples from the brain hippocampus, colon, and spleen were collected. In the Hippocampus, inflammatory indicators, such as IFN-γ, TNF-α, and IL-10, were measured using ELISA. In the colon, intestinal length and inflammatory indicators, such as IFN-γ, TNF-α, and IL-10, were measured. In the spleen, Th1 cells and Treg cells were measured by FACS (Fluorescence-Activated Cell Sorting).

## Lactobacillus rhamnosus NK210
[1]
  Colon (cm): 5.0 cm
  IFN-γ/IL-10: 2.50
  IL-10: 21.10 pg/mg
  Interferon (IFN)-γ: 44.24 pg/mg
  MPO activity: 4.55 μUnit/mg
  TNF-α: 20.76 pg/mg
  TNF-α/IL-10: 0.98
Healthy animal [2]
  Foxp3 (fold change): 1.05 fold change
  Tbet (fold change): 1.41 fold change
  Tbet/Foxp3: 1.45
  IFN-γ/IL-10: 1.38
  IL-10: 9.45 pg/mg
  Interferon (IFN)-γ: 13.02 pg/mg
  NK cell cytoxicity (%): 6.65%
  Phagocytosis (%): 50.03%
  TNF-a/IL-10: 0.37
  TNF-α: 3.48 pg/mg
[3]
  Foxp3 (fold change): 0.69 fold change
  Tbet (fold change): 1.07 fold change
  Tbet/Foxp3: 1.66
  IFN-γ/IL-10: 0.87
  IL-10: 8.25 pg/mg
  Interferon (IFN)-γ: 7.03 pg/mg
  NK cell cytoxicity (%): 7.34%
  Phagocytosis (%): 74.02%
  TNF-a/IL-10: 0.45
  TNF-α: 3.57 pg/mg
Healthy animal [4]
  Colon (cm): 5.12 cm
  IFN-γ/IL-10: 1.40
  IL-10: 39.95 pg/mg
  Interferon (IFN)-γ: 55.75 pg/mg
  MPO activity: 4.18 μUnit/mg
  TNF-a/IL-10: 0.34
  TNF-α: 13.40 pg/mg
[5]
  Foxp3 (fold change): 0.37 fold change
  Tbet (fold change): 0.75 fold change
  Tbet/Foxp3: 2.05
  IFN-γ/IL-10: 2.31
  IL-10: 3.31 pg/mg
  Interferon (IFN)-γ: 7.39 pg/mg
  NK cell cytoxicity (%): 8.26%
  Phagocytosis (%): 58.65%
  TNF-a/IL-10: 1.04
  TNF-α: 3.20 pg/mg

## Bifidobacterium longum NK219
[1]
  Colon (cm): 4.8 cm
  IFN-γ/IL-10: 2.35
  IL-10: 19.56 pg/mg
  Interferon (IFN)-γ: 44.72 pg/mg
  MPO activity: 4.30 μUnit/mg
  TNF-α: 18.59 pg/mg
  TNF-α/IL-10: 0.96
Healthy animal [2]
  Foxp3 (fold change): 1.05 fold change
  Tbet (fold change): 1.80 fold change
  Tbet/Foxp3: 1.86
  IFN-γ/IL-10: 1.35
  IL-10: 9.29 pg/mg
  Interferon (IFN)-γ: 12.56 pg/mg
  NK cell cytoxicity (%): 8.52%
  Phagocytosis (%): 64.57%
  TNF-a/IL-10: 0.38
  TNF-α: 3.49 pg/mg
[3]
  Foxp3 (fold change): 1.66 fold change
  Tbet (fold change): 1.03 fold change
  Tbet/Foxp3: 0.74
  IFN-γ/IL-10: 0.81
  IL-10: 11.35 pg/mg
  Interferon (IFN)-γ: 9.12 pg/mg
  NK cell cytoxicity (%): 6.47%
  Phagocytosis (%): 69.91%
  TNF-a/IL-10: 0.40
  TNF-α: 4.32 pg/mg
Healthy animal [4]
  Colon (cm): 5.03 cm
  IFN-γ/IL-10: 1.52
  IL-10: 42.89 pg/mg
  Interferon (IFN)-γ: 64.83 pg/mg
  MPO activity: 3.53 μUnit/mg
  TNF-a/IL-10: 0.37
  TNF-α: 15.73 pg/mg
[5]
  Foxp3 (fold change): 0.36 fold change
  Tbet (fold change): 0.95 fold change
  Tbet/Foxp3: 2.49
  IFN-γ/IL-10: 2.11
  IL-10: 2.90 pg/mg
  Interferon (IFN)-γ: 5.56 pg/mg
  NK cell cytoxicity (%): 8.90%
  Phagocytosis (%): 50.36%
  TNF-a/IL-10: 0.87
  TNF-α: 2.45 pg/mg

Source: US20250009819A1, “NOVEL PROBIOTICS AND USE THEREOF” (PBLBIOLAB CO., LTD., priority 2021, published 2025)
